Molecular target: T1, V30M-TTR (Homo sapiens, UniProt P02766, V50M)
T1 construct: composed of 127-residue β-sheet-rich subunits; made in house
Assay: Acid-mediated V30M-TTR fibril formation assay (turbidity at 400 nm)
Type: biochemical
Conditions: pH 4.4, 72 hours, 37° C.
Method: Compounds (5 μL of 1.44 mM solution in DMSO) were added to 495 μL of TTR (7.2 μM, in 10 mM sodium phosphate, 100 mM KCl, 1 mM EDTA, pH 7.0). The mixtures were vortexed and incubated (maintained) for 18 hours at 25° C. […] The solutions were vortexed to evenly distribute any precipitate, and turbidity was measured at 400 nm using a Hewlett Packard model 8453 UV-VIS Spectrophotometer.

With `Cc1cc(/C=C/c2cccc(C(=O)Sc3ccccc3)c2)cc(C)c1O` [Compound 2, (E)-S-phenyl 3-(4-hydroxy-3,5-dimethylstyryl)benzothioate] as the molecule, how does the “% Fibril Formation 7.2 μM (V30M-TTR)” value (compound 7.2 μM) read?
The value was 3%.

What about the “% Fibril Formation […] (V30M-TTR)” value (compound […]) of the same molecule?
The value was 34%.
